Assay results taken from patent publication US9464064B2, “HCV helicase inhibitors and methods of use thereof” (University of Kansas, priority 2011, dated 2016).
Like-named read-outs stand apart in the source and are kept apart here.

Legend:
MBHA DNA substrate = assay: Modified FID assay, SYBR Green I; format: binding; details: for DNA binding (%): SYBR Green I-FID, average (±SD) percent bound at 100 μM
How it was run: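 Affinity for the MBHA DNA substrate (0.32 μM) estimated by displacement of SYBR Green I (0.68 μM), ethidium bromide omitted. Each compound titrated in triplicate over three independent runs; EC50 from concentration-response fit, reported ± standard deviation.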

Huh-7.5 cells = assay: Cell viability assay ([…]-GLO); format: cell-based, human; details: for Cell viability (% viable): 10 μM compound, triplicate, average ± SD
How it was run: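 Viability was read by luminescence, integrated for 1 second, after 30 min at 23° C. in […]-GLO reagent mixed equally with growth medium. Before lysis, Huh-7.5 cells had received compound for 72 h and were rinsed with PBS.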

NS3h_2a(JFH1) = biological target: T1, NS3h_2a(JFH1) (Hepatitis C virus genotype 2a, UniProt Q99IB8); assay: MBHA, DNA substrate, genotype 2a helicase; format: biochemical, hepatitis C virus genotype 2a(JFH1)
T1 construct: truncated C-terminally His-tagged NS3 proteins lacking the N-terminal protease, called NS3h; His-tag (C); made in house
How it was run: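 Inhibition of DNA unwinding by C-terminally His-tagged recombinant NS3 helicase domain (no protease) from HCV genotype 2a JFH1 strain, measured by molecular beacon-based helicase assay (MBHA).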

[1] = Absorbance and fluorescence properties; format: physicochemical; details: for Absorbance ∈: extinction coefficient
Description: Most of the compounds isolated from the two yellow dyes were fluorescent, absorbing light around 340 nm, and emitting near 420 nm. Their extinction coefficient and peak absorption wavelengths increased as the length of the benzothiazole oligomer increased. Their relative fluorescence decreased with the length of the benzothiazole chain. None of the compounds absorbed light near either the absorption or emission wavelengths of the Cy5-labeled MBHA substrate, or the wavelengths where the fluorescence of ethidium bromide stained DNA, SYBER green I-stained DNA, NS3-catalyzed peptide cleavage, or ATP hydrolysis were measured.
When directly compared with P4, the semi-synthetic primuline derivatives have a sharper absorbance peak centered near 360 nm, and they emit 3-15 times more light when excited at their absorbance maximum. […] Some compounds, like 12, stained both the cytoplasm and nucleus, but they also stained glass coverslips.

[2] = biological target: T2, E. coli SSB-Cy5-dT15 complex (Escherichia coli, UniProt P0AGE0); assay: Escherichia coli SSB Cy5-dT15 binding assay (fluorescence polarization); details: for IC50: disruption of Cy5-dT15-SSB complex, read-out: Cy5-dT15-SSB Binding IC50; for inhibition at 100 µM: read-out: SSB % Displaced @ 100 μM; for EC50: read-out: SSB EC50
T2 construct: purchased Promega
How it was run: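 Compounds in DMSO (final 1% for screening, 5% for IC50 determination) added to MOPS pH 7.5 buffer with MgCl2, BSA, Tween 20 and DTT containing 20 nM SSB and 5 nM Cy5-dT15 probe. Displacement followed by polarization at 667 nm after 635 nm excitation.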

[3] = SYBR Green, read-out: FID (SG) EC50 (converted)
[4] = DNA-based MBHA, genotype 2a(JFH1), read-out: DNA Helicase NS3h_2a IC50 (μM) ± SD
[5] = genotype 2a (JFH1), read-out: Target Potency MBHA (IC50 avg., μM) 2a (JFH1) (converted)

T2 sequence (P0AGE0 2-178, one chain of several): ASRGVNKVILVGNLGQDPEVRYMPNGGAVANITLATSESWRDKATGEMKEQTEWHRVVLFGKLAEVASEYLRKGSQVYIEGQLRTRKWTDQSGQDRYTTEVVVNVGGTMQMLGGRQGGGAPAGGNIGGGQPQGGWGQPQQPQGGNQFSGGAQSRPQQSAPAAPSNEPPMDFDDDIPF
T1 sequence (Q99IB8 1196-1661): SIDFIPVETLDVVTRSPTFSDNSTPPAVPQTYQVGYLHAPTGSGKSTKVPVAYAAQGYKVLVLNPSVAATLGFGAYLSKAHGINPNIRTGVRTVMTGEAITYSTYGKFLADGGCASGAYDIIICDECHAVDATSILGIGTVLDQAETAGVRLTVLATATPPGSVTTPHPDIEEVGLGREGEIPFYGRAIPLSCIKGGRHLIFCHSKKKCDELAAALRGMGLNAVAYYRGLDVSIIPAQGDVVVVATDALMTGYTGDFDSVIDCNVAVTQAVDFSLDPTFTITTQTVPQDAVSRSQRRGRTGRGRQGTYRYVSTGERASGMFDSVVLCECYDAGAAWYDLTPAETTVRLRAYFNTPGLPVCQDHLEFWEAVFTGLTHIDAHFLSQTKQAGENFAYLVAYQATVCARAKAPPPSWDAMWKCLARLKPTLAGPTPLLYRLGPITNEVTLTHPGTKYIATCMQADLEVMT

Cc1ccc2nc(-c3ccc4nc(-c5ccc(NC(=O)c6ccc(N)cc6)cc5)sc4c3)sc2c1S(=O)(=O)O [Compound 6, 2′-(4-(4-aminobenzamido)phenyl)-6-methyl-[2,6′-bibenzo[d]thiazole]-7-sulfonic acid]
DNA binding (%) (MBHA DNA substrate): 63 ± 15% | FID (SG) % Displaced @ 100 μM (MBHA DNA substrate; SYBR Green): 63 ± 15% | EC50 (MBHA DNA substrate; [3]): 55 ± 13 µM | Cell Viability (% @ 10 μM) (Huh-7.5 cells): 93 ± 4% | Cell viability (% viable) (Huh-7.5 cells): 93 ± 4% | IC50 (NS3h_2a(JFH1); [4]): 5 ± 2.5 µM | IC50 (NS3h_2a(JFH1); [5]): 5.3 ± 2.5 µM | Absorbance λmax [1]: 360 nm | Fluorescence Emmax [1]: 429 nm | Fluorescence RFU@ 10 μM [1]: 4 RFU | Absorbance ∈ [1]: 36,600 M^−1cm^−1 | IC50 [2]: 2 ± 1 µM | inhibition at 100 µM [2]: 99% | EC50 [2]: 3 ± 1 µM

Cc1ccc2nc(-c3ccc4nc(-c5ccc(NC(=O)c6ccc(F)cc6)cc5)sc4c3)sc2c1S(=O)(=O)O.N [Compound 7, 2′-(4-(4-fluorobenzamido)phenyl)-6-methyl-[2, bibenzo[d]thiazole]-7-sulfonic acid]
DNA binding (%) (MBHA DNA substrate): 35 ± 15% | FID (SG) % Displaced @ 100 μM (MBHA DNA substrate; SYBR Green): 35 ± 15% | EC50 (MBHA DNA substrate; [3]): > 100 µM | Cell Viability (% @ 10 μM) (Huh-7.5 cells): 94 ± 2% | Cell viability (% viable) (Huh-7.5 cells): 94 ± 2% | IC50 (NS3h_2a(JFH1); [4]): 3 ± 0.8 µM | IC50 (NS3h_2a(JFH1); [5]): 3 ± 0.8 µM | Absorbance λmax [1]: 356 nm | Fluorescence Emmax [1]: 496 nm | Fluorescence RFU@ 10 μM [1]: 111 RFU | Absorbance ∈ [1]: 24,950 M^−1cm^−1 | IC50 [2]: 14 ± 4 µM | inhibition at 100 µM [2]: 88% | EC50 [2]: 14 ± 4 µM

Cc1ccc2nc(-c3ccc4nc(-c5ccc(NC(=O)c6ccc(C(F)(F)F)cc6)cc5)sc4c3)sc2c1S(=O)(=O)O [Compound 12, 6-methyl-2′-(4-(4-(trifluoromethyl)benzamido)phenyl)-[2,6′-bibenzo[d]thiazole]-7-sulfonic acid]
DNA binding (%) (MBHA DNA substrate): 69 ± 9% | FID (SG) % Displaced @ 100 μM (MBHA DNA substrate; SYBR Green): 69 ± 9% | EC50 (MBHA DNA substrate; [3]): 29 ± 9 µM | Cell Viability (% @ 10 μM) (Huh-7.5 cells): 90 ± 4% | Cell viability (% viable) (Huh-7.5 cells): 90 ± 4% | IC50 (NS3h_2a(JFH1); [4]): 2 ± 1 µM | IC50 (NS3h_2a(JFH1); [5]): 2.5 ± 1 µM | Absorbance λmax [1]: 356 nm | Fluorescence Emmax [1]: 498 nm | Fluorescence RFU@ 10 μM [1]: 158 RFU | Absorbance ∈ [1]: 42,750 M^−1cm^−1 | IC50 [2]: 3 µM | inhibition at 100 µM [2]: 80% | EC50 [2]: 4 ± 2 µM

Cc1ccc2nc(-c3ccc4nc(-c5ccc(NC(=O)Nc6ccc(C(F)(F)F)cc6)cc5)sc4c3)sc2c1S(=O)(=O)O.N [Compound 47]
FID (SG) % Displaced @ 100 μM (MBHA DNA substrate; SYBR Green): 84 ± 22% | EC50 (MBHA DNA substrate; [3]): 18 µM | Cell Viability (% @ 10 μM) (Huh-7.5 cells): 99 ± 7% | IC50 (NS3h_2a(JFH1); [5]): 4 µM | IC50 [2]: 15 ± 3 µM | inhibition at 100 µM [2]: 91% | EC50 [2]: 15 µM

Cc1ccc2nc(-c3ccc4nc(-c5ccc(NC(=O)Nc6ccc(F)cc6)cc5)sc4c3)sc2c1S(=O)(=O)O.N [Compound 48]
FID (SG) % Displaced @ 100 μM (MBHA DNA substrate; SYBR Green): 58 ± 3% | EC50 (MBHA DNA substrate; [3]): 74 µM | Cell Viability (% @ 10 μM) (Huh-7.5 cells): 93 ± 2% | IC50 (NS3h_2a(JFH1); [5]): 9.9 µM | IC50 [2]: 11 ± 2 µM | inhibition at 100 µM [2]: 100% | EC50 [2]: 11 µM

Cc1ccc2nc(-c3ccc4nc(-c5ccc(NC(=O)c6cccc7ccccc67)cc5)sc4c3)sc2c1S(=O)(=O)O.N [Compound 49]
FID (SG) % Displaced @ 100 μM (MBHA DNA substrate; SYBR Green): 80 ± 3% | EC50 (MBHA DNA substrate; [3]): 30 µM | Cell Viability (% @ 10 μM) (Huh-7.5 cells): 103 ± 5% | IC50 (NS3h_2a(JFH1); [5]): 3.9 µM | IC50 [2]: 9 ± 2 µM | inhibition at 100 µM [2]: 94% | EC50 [2]: 9 µM

Cc1ccc2nc(-c3ccc4nc(-c5ccc(NC(=S)Nc6ccccc6)cc5)sc4c3)sc2c1S(=O)(=O)O.N [Compound 50]
FID (SG) % Displaced @ 100 μM (MBHA DNA substrate; SYBR Green): 76 ± 9% | EC50 (MBHA DNA substrate; [3]): 30 µM | Cell Viability (% @ 10 μM) (Huh-7.5 cells): 98 ± 10% | IC50 (NS3h_2a(JFH1); [5]): 9.6 µM | IC50 [2]: 7 ± 1 µM | inhibition at 100 µM [2]: 98% | EC50 [2]: 7 µM

Cc1ccc2nc(-c3ccc(NC(=O)c4ccc(NC(=O)c5ccc(NC(=O)OCC6c7ccccc7-c7ccccc76)cc5)cc4)cc3)sc2c1S(=O)(=O)O.N [Compound 51]
FID (SG) % Displaced @ 100 μM (MBHA DNA substrate; SYBR Green): 22% | EC50 (MBHA DNA substrate; [3]): > 100 µM | Cell Viability (% @ 10 μM) (Huh-7.5 cells): 113 ± 5% | IC50 (NS3h_2a(JFH1); [5]): 1.9 µM | IC50 [2]: 7 ± 3 µM | EC50 [2]: 7 µM

Cc1ccc2nc(-c3ccc4nc(-c5ccc(NC(=O)Nc6ccccc6)cc5)sc4c3)sc2c1S(=O)(=O)O.N [Compound 52]
FID (SG) % Displaced @ 100 μM (MBHA DNA substrate; SYBR Green): 46 ± 2% | EC50 (MBHA DNA substrate; [3]): > 100 µM | Cell Viability (% @ 10 μM) (Huh-7.5 cells): 108 ± 4% | IC50 (NS3h_2a(JFH1); [5]): 6 µM | IC50 [2]: 6 ± 1 µM | inhibition at 100 µM [2]: 95% | EC50 [2]: 6 µM

Cc1ccc2nc(-c3ccc4nc(-c5ccc(NCc6ccccc6)cc5)sc4c3)sc2c1S(=O)(=O)O [Compound 53]
FID (SG) % Displaced @ 100 μM (MBHA DNA substrate; SYBR Green): 92 ± 4% | EC50 (MBHA DNA substrate; [3]): 27 µM | Cell Viability (% @ 10 μM) (Huh-7.5 cells): 109 ± 8% | IC50 (NS3h_2a(JFH1); [5]): 13.5 µM | IC50 [2]: 5 ± 1 µM | inhibition at 100 µM [2]: 102% | EC50 [2]: 5 µM

Cc1ccc2nc(-c3ccc4nc(-c5ccc(NC(=O)Nc6ccc(Cl)cc6)cc5)sc4c3)sc2c1S(=O)(=O)O [Compound 54]
FID (SG) % Displaced @ 100 μM (MBHA DNA substrate; SYBR Green): 74 ± 4% | EC50 (MBHA DNA substrate; [3]): 8 µM | Cell Viability (% @ 10 μM) (Huh-7.5 cells): 98 ± 1% | IC50 (NS3h_2a(JFH1); [5]): 4.4 µM | IC50 [2]: 5 ± 1 µM | inhibition at 100 µM [2]: 94% | EC50 [2]: 5 µM

COc1ccc(NC(=O)Nc2ccc(-c3nc4ccc(-c5nc6ccc(C)c(S(=O)(=O)O)c6s5)cc4s3)cc2)cc1 [Compound 55]
FID (SG) % Displaced @ 100 μM (MBHA DNA substrate; SYBR Green): 55 ± 6% | EC50 (MBHA DNA substrate; [3]): 73 µM | Cell Viability (% @ 10 μM) (Huh-7.5 cells): 99 ± 9% | IC50 (NS3h_2a(JFH1); [5]): 6.4 µM | IC50 [2]: 4 ± 1 µM | inhibition at 100 µM [2]: 95% | EC50 [2]: 4 µM

Cc1ccc2nc(-c3ccc4nc(-c5ccc(N)cc5)sc4c3)sc2c1S(=O)(=O)O [Compound P2a, 2′-(4-aminophenyl)-6-methyl-[2,6′-bibenzo[d]thiazole]-7-sulfonic acid]
IC50 (NS3h_2a(JFH1); [4]): 58 ± 51 µM | Absorbance λmax [1]: 366 nm | Fluorescence Emmax [1]: 553 nm | Fluorescence RFU@ 10 μM [1]: 15 RFU | Absorbance ∈ [1]: 38,550 M^−1cm^−1 | IC50 [2]: 2 µM

Cc1ccc2nc(-c3ccc4nc(-c5ccc6nc(-c7ccc8nc(-c9ccc(N)cc9)sc8c7)sc6c5)sc4c3)sc2c1S(=O)(=O)O [Compound P4, 2′″-(4-aminophenyl)-6-methyl-[2,6′:2″,6′″-quaterbenzo[d]thiazole]-7-sulfonic acid]
fold weaker DNA binding than potency in MBHA (MBHA DNA substrate; DNA binding versus MBHA IC50): 17 fold | EC50 (MBHA DNA substrate; FID, mean ± SD, read-out: DNA Binding (SYBR Green I) EC50): 15 ± 8 µM | IC50 (NS3h_2a(JFH1); [4]): 1 ± 0.3 µM | Absorbance λmax [1]: 382 nm | Fluorescence Emmax [1]: 467 nm | Fluorescence RFU@ 10 μM [1]: 3 RFU | Absorbance ∈ [1]: 32,000 M^−1cm^−1
